Test results from patent US12145945B2, “Compounds, compositions, and therapeutic uses thereof” (Breakpoint Therapeutics GmbH, priority 2023, dated 2024).

Target: truncated Polθ protein (Polθ-Hel containing the helicase domain (67-894)) (Homo sapiens (Human), UniProt O75417)
Experiment: Polθ ATPase assay (Biological Assay 1, ADP-Glo luminescence)
Type: biochemical
Method: The Polθ ATPase assay was used to evaluate inhibitors of Polθ ATPase activity, in vitro. Experiments were performed using a truncated Polθ protein (Polθ-Hel containing the helicase domain (67-894), ATP and a DNA single strand Oligo (5′-CTGTCCTGCATGATG-3′) in the Polθ assay buffer (20 mM Tris-HCl (pH 8.8), MgCl2 5 mM, tween20 0.01%, NP40 0.01%, BSA 0.01%, DTT 1 mM). 2 μL of assay buffer containing Polθ-Hel protein (0.5 nM) and DNA substrate (500 nM) was transferred into assay ready plates, containing 0.04 μL of compounds diluted in DMSO. After a 30 minutes incubation at 23° C. in the dark, the reaction was triggered by adding 2 μL of ATP (60 μM), in assay buffer. After 60 minutes at 23° C., 4 μl of ADP-Glo™ Reagent (Glo 1) was added followed by 40 minutes of incubation, then 8 μl of ADP-Glo™ kinase Detection Reagent (Glo 2) followed by 60 minutes of incubation at 23° C. Luminescence was then measured using Tecan F200 infinite plate reader. Raw data were analysed using GeneData to generate IC50 values.
The Polθ ATPase assay described in Biological Assay 1 above was used to evaluate inhibitors of Polθ ATPase activity for the compounds described in the Experimental Part B above, in vitro.

[1] = Table A, Polθ-Hel 0.5 nM, DNA substrate 500 nM, ATP 60 μM

Sequence of truncated Polθ protein (Polθ-Hel containing the helicase domain (67-894)) (O75417 67-894): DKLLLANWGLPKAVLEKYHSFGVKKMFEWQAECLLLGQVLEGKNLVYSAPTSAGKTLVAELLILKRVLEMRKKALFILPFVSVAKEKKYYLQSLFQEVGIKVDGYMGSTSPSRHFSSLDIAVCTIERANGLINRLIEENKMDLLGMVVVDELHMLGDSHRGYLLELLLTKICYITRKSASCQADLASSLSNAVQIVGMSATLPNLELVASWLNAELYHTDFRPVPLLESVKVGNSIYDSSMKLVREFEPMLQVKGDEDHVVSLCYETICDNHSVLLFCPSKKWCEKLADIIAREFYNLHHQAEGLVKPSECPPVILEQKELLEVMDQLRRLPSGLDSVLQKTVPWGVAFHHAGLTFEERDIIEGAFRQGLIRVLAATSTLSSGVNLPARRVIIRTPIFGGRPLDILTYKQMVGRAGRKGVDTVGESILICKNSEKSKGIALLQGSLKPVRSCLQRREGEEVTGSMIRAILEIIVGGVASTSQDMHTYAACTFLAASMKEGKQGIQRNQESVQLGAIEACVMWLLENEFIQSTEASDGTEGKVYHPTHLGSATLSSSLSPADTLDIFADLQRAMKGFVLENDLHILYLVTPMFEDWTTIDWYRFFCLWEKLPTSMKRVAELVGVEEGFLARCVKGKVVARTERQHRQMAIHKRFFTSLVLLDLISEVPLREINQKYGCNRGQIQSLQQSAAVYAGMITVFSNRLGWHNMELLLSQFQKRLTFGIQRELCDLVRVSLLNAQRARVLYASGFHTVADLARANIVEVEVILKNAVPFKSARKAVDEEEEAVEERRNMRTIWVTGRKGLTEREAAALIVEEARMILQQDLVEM

IC50 [1] | IC50 (Table B (Part B compounds), same assay as Biological Assay 1) | Compound
< 100 nM |  | COc1cnc(Cl)cc1-c1cc(C)ncc1C(=O)Nc1nc2ccc(I)cc2s1 [Example 4, 2′-chloro-N-(6-iodo-1,3-benzothiazol-2-yl)-5′-methoxy-6-methyl-[4,4′-bipyridine]-3-carboxamide]
> 1000 nM |  | COc1ccccc1-c1cnccc1C(=O)Nc1nc2ccccc2s1 [Example 15, N-(1,3-benzothiazol-2-yl)-3-(2-methoxyphenyl) pyridine-4-carboxamide]
< 100 nM |  | COc1cnc(Cl)cc1-c1cc(C)ncc1C(=O)Nc1nc2cnc(N3CCC(O)CC3)cc2s1 [Example 68, 2′-chloro-N-[6-(4-hydroxypiperidin-1-yl)-[1,3]thiazolo[4,5-c]pyridin-2-yl]-5′-methoxy-6-methyl-[4,4′-bipyridine]-3-carboxamide]
 | < 100 nM | COc1cnc(Cl)cc1-c1cc(C)ncc1C(=O)Nc1nc2cnc(N3CC(OC)C3)cc2s1 [Example 129, 2′-chloro-5′-methoxy-N-[6-(3-methoxyazetidin-1-yl)-[1,3]thiazolo[4,5-c]pyridin-2-yl]-6-methyl-[4,4′-bipyridine]-3-carboxamide]
